Experiment [1] concerns human multiple myeloma cells (MM.1S). The experiment is described as follows: Anti-proliferation assay (ATPLite, 72 h). On the set-up: key to synergy score / synergy (score), PDEi × HE-NECA: S = lnfX·lnfY·ΣIdata(Idata−ILoewe), volume over Loewe additivity. The experiment is classed as cell-based. The procedure:
(§1) ANBL6 and INA-6 culture media was also supplemented with 10 ng/ml IL-6. […] MM.1S, MM.1R, OCI-ly10, Karpas 422, and SU-DHL6 cells were provided by the Dana Farber Cancer Institute. H929, RPMI-8226, GA-10, and Farage cells were from ATCC (Cat #'s CCL-155, CRL-9068, CRL-2392 and CRL-2630 respectively). MOLP-8, EJM, KSM-12-PE, and OPM2 were from DSMZ. The ANBL6 and INA-6 cell lines were provided by the M. D. Anderson Cancer Research Center. Compounds were prepared in DMSO at 1000× the highest desired concentration. Master plates were generated consisting of serially diluted compounds in 2- or 3-fold dilutions in 384-well format. For single agent dose response curves, the master plates consisted of 9 individual compounds at 12 concentrations in 2- or 3-fold dilutions. For combination matrices, master plates consisted of individual compounds at 6 or 9 concentrations at 2- or 3-fold dilutions. […] To obtain combination data, two master plates were diluted into the assay plates. […] Thirty microliters of ATPLite (Perkin Elmer) at room temperature was then added to each well. […] Measurements were taken at the top of the well using a luminescence aperture and a read time of 0.1 seconds per well. The percent inhibition (% I) for each well was calculated using the following formula: % I=[(avg. untreated wells-treated well)/(avg. untreated wells)]×100. […] Negative inhibition values result from local variations in treated wells as compared to untreated wells. […] The uncertainty of each fitted parameter was estimated from the range over which the change in reduced chi-squared was less than one, or less than minimum reduced chi-squared if that minimum exceeded one, to allow for underestimated σI errors. Single agent curve data were used to define a dilution series for each compound to be used for combination screening in a 6×6 matrix format. […] The Loewe additivity model was used to quantify combination effects. […] A “Synergy Score” was also used, where the Synergy Score S=log fX log fY ΣIdata(Idata-ILoewe), summed over all non-single-agent concentration pairs, and where log fX,Y is the natural logarithm of the dilution factors used for each single agent. This effectively calculates a volume between the measured and Loewe additive response surfaces, weighted towards high inhibition and corrected for varying dilution factors. An uncertainty σS was calculated for each synergy score, based on the measured errors for the Idata values and standard error propagation.
On the technique in general: In ATP-based viability assays light output follows the ATP content of the culture.

Experiment [2] relates to phosphodiesterase (PDE) types. To be noted: PDE type(s) in brackets after the name; cited from earlier work.
Experiment [3] relates to human multiple myeloma cells (MM.1R). The experiment is described as follows: Anti-proliferation assay (ATPLite, 72 h). On the set-up: key: S = lnfX·lnfY·ΣIdata(Idata−ILoewe), volume over Loewe additivity. The experiment is classed as cell-based. How it is done: as §1
The test system of experiment [4] is H929 multiple myeloma cell line. The experiment is described as follows: Anti-proliferation assay (ATPLite, 72 h). It counts as cell-based, human. Also on record: key: S = lnfX·lnfY·ΣIdata(Idata−ILoewe), volume over Loewe additivity. How it is done:
as §1

The subject of experiment [5] is RPMI-8226 multiple myeloma cell line. Put plainly: Anti-proliferation assay (ATPLite, 72 h). The experiment is classed as cell-based, human. Also on record: key: S = lnfX·lnfY·ΣIdata(Idata−ILoewe), volume over Loewe additivity. The procedure: as §1
Experiment [6] deals with human multiple myeloma cells (MM.1R) transfected with siRNA. The experiment is described as follows: Anti-proliferation assay after siRNA transfection. It counts as cell-based. As to conditions: MM.1R, siRNA targeting PDE 2A, HE-NECA 0 nM. How it is done: siRNA to adenosine receptor A1, A2A, A3, PDE 2A, PDE 3B, PDE 4B, PDE 4D and PDE 7A, and control siRNA siCON were purchased from Dharmacon. A2B siRNA was purchased from Invitrogen. Electroporations were performed using an Amaxa Nucleoporator (program S-20) and solution V. siRNAs were used at 50 nM. […] RNA was isolated using Qiagen RNAeasy kits, and targets quantified by RT-PCR using gene specific primers purchased from Applied Biosystems.
Cells were added to 384-well plates 24 hours prior to compound addition such that each well contained 2000 cells in 35 μL of media. Master plates were diluted 100× (1 μL into 100 μL) into 384-well dilution plates containing only cell culture media. 4.5 μL from each dilution plate was added to each assay plate for a final dilution of 1000×. To obtain combination data, two master plates were diluted into the assay plates. Following compound addition, assay plates were kept at 37° C. and 5% CO2 for 72 hours. Thirty microliters of ATPLite (Perkin Elmer) at room temperature was then added to each well. Final amount of ATP was quantified within 30 minutes using ATPLite luminescent read-out on an Envision 2103 Multilabel Reader (Perkin Elmer). Measurements were taken at the top of the well using a luminescence aperture and a read time of 0.1 seconds per well.
We also examined the antiproliferative activity of adenosine receptor agonists when the MM cell line MM.1R was transfected with siRNA targeting the A1, A2A, A2B or A3 receptor. Specific gene silencing (A1, A2A, A2B, or A3) was greater than 50% as determined by real time PCR analysis 48 hours post-transfection. At 48 hours post-transfection, cells were exposed to adenosine receptor agonist, incubated an additional 72 hours, and compounds assayed for antiproliferative activity. Representative data is in Table 34. Cells transfected with adenosine receptor siRNA or a control siRNA (scrambled sequences designed so that cellular transcriptsare not targeted) were treated with the adenosine receptor agonist ADAC. […] Similar results were obtained with a second siRNA with specificity for different region of the A2A receptor mRNA, confirming that the reduction in adenosine receptor agonist activity is the result of specific siRNA targeting of the A2A receptor (data not shown).
In our experiments, PDE gene silencing was always greater than 50% as confirmed by real time PCR analysis 48 hours post-transfection. At 48 hours post-transfection, cells were exposed to adenosine receptor agonist and PDE inhibitor, incubated an additional 72 hours, and compounds assayed for antiproliferative activity. Representative data is in Tables 39-45. For each analysis, the activity of cells transfected with an siRNA targeting a specific PDE was compared to cells transfected with a control non-targeting siRNA (siCON).

The mark [7] stands for this setting: PDE inhibitor crossed with (S) ENBA, MM.1S.
Setting [8] is: PDE inhibitor crossed with ADAC, MM.1S.
Setting [9] is: PDE inhibitor crossed with Chloro-IB-MECA, MM.1S.
Where [10] appears, read: PDE inhibitor crossed with HE-NECA, MM.1S.
Where [11] appears, read: PDE inhibitor crossed with (S) ENBA, H929.
[12] abbreviates: PDE inhibitor crossed with ADAC, H929.
Setting [13] is: PDE inhibitor crossed with Chloro-IB-MECA, H929.
Where [14] appears, read: PDE inhibitor crossed with HE-NECA, H929.

Results on nine molecules are retold here after patent US20090047243A1, “COMBINATIONS FOR THE TREATMENT OF B-CELL PROLIFERATIVE DISORDERS” (priority 2007, published 2009).

The term inhibition denotes the share of the control response that was lost under treatment. For `CCCCOc1cc(CC2CNC(=O)N2)ccc1OC` (stereo not drawn) [RO-20-1724, 4-(3-butoxy-4-methoxybenzyl)-2-imidazolidinone], the inhibition at 2.28 µM in experiment [1] (Homo sapiens, MM1.S, RO-20-1724 2.28 μM, HE-NECA conc. (nM), read-out: Percent inhibition of ATP in MM.1S cells) was determined as 2.3%. Moreover, the inhibition at 4.55 µM in experiment [1] (Homo sapiens, MM1.S, RO-20-1724 4.55 μM, HE-NECA conc. (nM), read-out: Percent inhibition of ATP in MM.1S cells) was 11%. Also, the inhibition at 18.2 µM in experiment [1] (Homo sapiens, MM1.S, RO-20-1724 18.2 μM, HE-NECA conc. (nM), read-out: Percent inhibition of ATP in MM.1S cells) amounted to 10%. Besides, in experiment [1] (Homo sapiens, MM1.S, RO-20-1724 36.4 μM, HE-NECA conc. (nM), read-out: Percent inhibition of ATP in MM.1S cells), the inhibition at 36.4 µM was 1.4%. For the same molecule, the synergy score was 0.73 in experiment [1] (setting [7]); 1.71 in experiment [1] (setting [8]); 1.6 in experiment [1] (setting [9]); 3.58 in experiment [1] (setting [10]); 1.71 in experiment [1] (in combination with adenosine receptor agonist ADAC, MM.1S); 3.42 in experiment [3] (in combination with adenosine receptor agonist ADAC, MM.1R). For the same molecule, the synergy score was 0.09 in experiment [4] (setting [11]); 1.11 in experiment [4] (setting [12]); 1.14 in experiment [4] (setting [13]); 2.51 in experiment [4] (setting [14]); 1.1 in experiment [4] (in combination with adenosine receptor agonist ADAC, H929); 0.51 in experiment [5] (in combination with adenosine receptor agonist ADAC, RPMI-8226). For the same molecule, the “PDE inhibitors (specificity)” value in experiment [2] was “RO-20-1724 (4)”.
For the molecule `CC(=O)CCCCn1c(=O)c2c(ncn2C)n(C)c1=O` [Pentoxifylline], the synergy score was 0.49 in experiment [1] (setting [7]); 0.05 in experiment [1] (setting [9]); 0.29 in experiment [1] (setting [10]); 0.02 in experiment [4] (setting [11]); 0.02 in experiment [4] (setting [13]); 0.09 in experiment [4] (setting [14]). Further, in experiment [2], the “PDE inhibitors (specificity)” value is recorded as “Pentoxifylline (pan)”.
Turning to `COc1ccc([C@@H]2CNC(=O)C2)cc1OC1CCCC1` [R-(−)-Rolipram], the “synergy (score), PDEi × HE-NECA” value is recorded as 2.33 in experiment [1] (6×6 cross of PDE inhibitor or PDE inhibitor mixture with HE-NECA, MM.1S) and 1.88 in experiment [4] (6×6 cross of PDE inhibitor or PDE inhibitor mixture with HE-NECA, H929). For the same molecule, the synergy score came to 1.92 in experiment [1] (in combination with adenosine receptor agonist CGS-21680, MM.1S); 2.965 in experiment [1] (in combination with adenosine receptor agonist HE-NECA, MM.1S); 1.83 in experiment [1] (in combination with adenosine receptor agonist regadenoson, MM.1S); 4.54 in experiment [3] (in combination with adenosine receptor agonist CGS-21680, MM.1R); 3.62 in experiment [3] (in combination with adenosine receptor agonist regadenoson, MM.1R); 1.93 in experiment [4] (in combination with adenosine receptor agonist CGS-21680, H929). Moreover, the synergy score in experiment [4] (in combination with adenosine receptor agonist HE-NECA, H929) was found to be 2.148; in experiment [4] (in combination with adenosine receptor agonist regadenoson, H929) it was 1.91; in experiment [5] (in combination with adenosine receptor agonist CGS-21680, RPMI 8226) it was 2.03; in experiment [5] (in combination with adenosine receptor agonist HE-NECA, RPMI-8226) it was 1.16; in experiment [5] (in combination with adenosine receptor agonist regadenoson, RPMI 8226) it was 0.63. Further, the Antiproliferative activity in experiment [6] (R-(−)-Rolipram 0.23 μM) was 3.8; in experiment [6] (R-(−)-Rolipram 2 μM), 8.1; in experiment [6] (R-(−)-Rolipram 6.1 μM), 5.3; in experiment [6] (R-(−)-Rolipram 18 μM) it was 7.7; in experiment [6] (R-(−)-Rolipram […]), −1.2.
As to `Nc1nc(N)nc(-c2cc(Cl)ccc2Cl)n1` [Irsogladine], the synergy score in experiment [1] (setting [7]) is listed as 0.38; in experiment [1] (setting [9]), 0.25; in experiment [4] (setting [11]) it was 0.09; in experiment [4] (setting [13]) it was 0.05. The “PDE inhibitors (specificity)” value in experiment [2] was “Irsogladine (4)”.
Regarding `CC(C)Cn1c(=O)n(C)c(=O)c2[nH]cnc21` [IBMX], in experiment [1] (setting [7]), the synergy score is on record as 0.055. Moreover, the “PDE inhibitors (specificity)” value in experiment [2] is given as “IBMX (pan)”.
For `Cc1[nH]c(=O)c(C#N)cc1-c1ccncc1` [milrinone], the synergy score in experiment [1] (setting [7]) came out at 1.31; in experiment [1] (setting [9]), 0.25; in experiment [1] (setting [10]), 0.33; in experiment [4] (setting [13]), 0.08; in experiment [4] (setting [14]) it was 0.15. For the same molecule, the “PDE inhibitors (specificity)” value in experiment [2] was “Milrinone (3)”.
Take (R)-Rolipram: the synergy score in experiment [1] (setting [7]) worked out at 2.08; in experiment [1] (setting [8]), 0.97; in experiment [1] (setting [9]), 0.84; in experiment [1] (setting [10]), 4.38; in experiment [4] (setting [11]) it was 0.82; in experiment [4] (setting [12]), 0.51. Also, the synergy score was 0.63 in experiment [4] (setting [13]) and 2.51 in experiment [4] (setting [14]). Moreover, in experiment [2], the “PDE inhibitors (specificity)” value is on record as “(R)-Rolipram (4)”.
With `CCOC(=O)C1=C[C@]2(CC)CCCN3CCc4c(n1c1ccccc41)[C@@H]32` [Vinoceptine], the synergy score amounted to 0.25 in experiment [1] (setting [7]); 0.02 in experiment [1] (setting [8]); 0.26 in experiment [1] (setting [10]); 0.21 in experiment [4] (setting [11]); 0.01 in experiment [4] (setting [12]); 0 in experiment [4] (setting [14]). Besides, in experiment [2], the “PDE inhibitors (specificity)” value is recorded as “Vinoceptine (1)”.
Turning to `CN/C(=N\c1ccc(C2=NNC(=O)CC2C)cc1)NC#N` (stereo not drawn) [Siguazodan], the synergy score stood at 1.39 in experiment [1] (setting [7]); 0.42 in experiment [1] (setting [9]); 0.72 in experiment [1] (setting [10]); 0.13 in experiment [4] (setting [11]); 0.09 in experiment [4] (setting [13]); 0.08 in experiment [4] (setting [14]). Besides, in experiment [2], the “PDE inhibitors (specificity)” value is recorded as “Siguazodan (3)”.
